How the values were obtained:
Assay in all cases: relative viability (nuclei count vs DMSO), 5 days (fraction); higher = more cells survive
Ibrutinib + Foretinib = compound: C=CC(=O)N1CCC[C@@H](n2nc(-c3ccc(Oc4ccccc4)cc3)c3c(N)ncnc32)C1 [Ibrutinib] + COc1cc2c(Oc3ccc(NC(=O)C4(C(=O)Nc5ccc(F)cc5)CC4)cc3F)ccnc2cc1OCCCN1CCOCC1 [Foretinib] (partner 0.25 µM)
How it was run: (§1)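 A single step with final 0.05% Triton X-100, 1% formaldehyde and 1 ug/ml Hoechst fixed the cells and stained nuclei 5 days after treatment. Lung cancer cell lines in 1536-well plates had been treated by pin tool the day after seeding with one drug alone or a fixed anchor-drug dose plus five library-drug doses (not always all listed) in √10 steps, and nuclei were counted on 4× images. Relative viability is the ratio of nuclei in treated wells to nuclei in vehicle wells, taken as the median of duplicate plates.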

BMX-IN-1 + Pemetrexed = compound: C=CC(=O)Nc1cc(-n2c(=O)ccc3cnc4ccc(-c5ccc(NS(C)(=O)=O)cc5)cc4c32)ccc1C [BMX-IN-1] + Nc1nc2[nH]cc(CCc3ccc(C(=O)N[C@@H](CCC(=O)O)C(=O)O)cc3)c2c(=O)[nH]1 [Pemetrexed] (partner 0.2 µM)
How it was run: as §1

PAC-1 + Tozasertib = compound: C=CCc1cccc(/C=N/NC(=O)CN2CCN(Cc3ccccc3)CC2)c1O [PAC-1] + Cc1cc(Nc2cc(N3CCN(C)CC3)nc(Sc3ccc(NC(=O)C4CC4)cc3)n2)n[nH]1 [Tozasertib] (partner 0.1 µM)
How it was run: as §1

PAC-1 + Decitabine = compound: C=CCc1cccc(/C=N/NC(=O)CN2CCN(Cc3ccccc3)CC2)c1O [PAC-1] + Nc1ncn([C@H]2C[C@H](O)[C@@H](CO)O2)c(=O)n1 [Decitabine] (partner 2 µM)
How it was run: as §1

| Cell Line | relative viability (Ibrutinib + Foretinib; first compound 0.005 µM) | relative viability (Ibrutinib + Foretinib; first compound 0.01581 µM) | relative viability (Ibrutinib + Foretinib; first compound 0.05 µM) | relative viability (Ibrutinib + Foretinib; first compound 0.1581 µM) | relative viability (Ibrutinib + Foretinib; first compound 0.5 µM) | relative viability (BMX-IN-1 + Pemetrexed; first compound 0.02 µM) | relative viability (BMX-IN-1 + Pemetrexed; first compound 0.2 µM) | relative viability (BMX-IN-1 + Pemetrexed; first compound 0.6325 µM) | relative viability (BMX-IN-1 + Pemetrexed; first compound 2 µM) | relative viability (PAC-1 + Tozasertib; first compound 0.02 µM) | relative viability (PAC-1 + Tozasertib; first compound 0.06325 µM) | relative viability (PAC-1 + Tozasertib; first compound 0.2 µM) | relative viability (PAC-1 + Tozasertib; first compound 2 µM) | relative viability (PAC-1 + Decitabine; first compound 0.02 µM) | relative viability (PAC-1 + Decitabine; first compound 0.06325 µM) | relative viability (PAC-1 + Decitabine; first compound 0.2 µM) | relative viability (PAC-1 + Decitabine; first compound 2 µM) |
| --- | --- | --- | --- | --- | --- | --- | --- | --- | --- | --- | --- | --- | --- | --- | --- | --- | --- |
| NCI-H1395 | 0.913 | 0.922 | 1.02 | 0.982 | 0.907 | 0.877 | 0.976 | 0.722 | 0.756 | 0.629 | 0.7 | 0.749 | 0.646 | 0.741 | 0.685 | 0.632 | 0.712 |
| NCI-H838 | 0.929 | 0.985 | 1.07 | 1.01 | 1.02 | 0.255 | 0.244 | 0.237 | 0.236 | 0.283 | 0.239 | 0.262 | 0.279 | 0.425 | 0.45 | 0.462 | 0.445 |
| NCI-H520 | 0.672 | – | 0.734 | 0.945 | 0.531 | 0.762 | 0.853 | 0.686 | 0.762 | 0.461 | 0.468 | 0.407 | 0.393 | 0.465 | 0.513 | 0.328 | 0.548 |
| SW 1573 | 0.816 | 0.733 | 1.01 | 0.844 | 0.879 | 0.901 | 1.02 | 0.931 | 0.666 | 0.172 | 0.184 | 0.255 | 0.148 | 0.532 | 0.551 | 0.432 | 0.564 |
| 201T | 1.02 | 1 | 0.965 | 1.03 | 1.08 | 0.326 | 0.342 | 0.339 | 0.351 | 0.876 | 1 | 0.956 | 0.883 | 0.854 | 0.85 | 0.836 | 0.861 |
| NCI-H1437 | 1.33 | 1.19 | 1.26 | 1.28 | 1.27 | 0.351 | 0.285 | 0.34 | 0.292 | 0.395 | 0.391 | 0.378 | 0.378 | 0.568 | 0.587 | 0.583 | 0.537 |
| NCI-H1975 | 0.973 | 0.891 | 0.819 | 0.96 | 0.544 | 0.321 | 0.312 | 0.29 | 0.279 | 0.76 | 0.824 | 0.748 | 0.729 | 0.413 | 0.408 | 0.333 | 0.388 |
| RERF-LC-KJ | 0.97 | 0.707 | 0.841 | 0.895 | 0.845 | 0.468 | 0.448 | 0.48 | 0.456 | 0.467 | 0.483 | 0.45 | 0.511 | 0.66 | 0.65 | 0.66 | 0.661 |
